From patent US11760755B2, “Hepatitis B antiviral agents” (priority 2019, dated 2023)
pEC50: −log10 of the molar value. Like-named read-outs stand apart in the source and are kept apart here.

What was measured:
HBV = assay: HepAD38 antiviral assay: reduction of viral product accumulation (virion DNA by qPCR, HBsAg/HBeAg by ELISA); type: cell-based, hepatitis B virus; conditions: for EC50: HePAD38, read-out: HepAD38 EC50 (μM); for pEC50: HepAD38 cells, 50% reduction of viral product accumulation relative to no drug controls, read-out: HepAD38 EC50
Experimental: Methods: HepAD38 cells are maintained as previously reported (Ladner et al, Antimicrob. Agents Chemother. 1997, […], 1715). Briefly, cells are passaged upon attaining confluency in DMEM/F12 media in the presence of 10% FBS, Penn/Strep, 250 μg/mL G418, and 1 μg/ml tetracycline. Novel compounds are screened by first washing cells three times with PBS to remove tetracycline, and plating in 96 well plates at 35,000 cells/well. Compounds dissolved in DMSO are then diluted 1:200 into wells containing cells. Five days after compound addition, material is harvested for analysis. For an extended 8 day analysis, cells are plated and treated as described above, but media and compound are refreshed on d2 and d5 post initial treatment.
On harvest day, virion DNA is obtained by lysing with Sidestep Lysis and Stabilization Buffer and then quantified via quantitative real time PCR. Commercially available ELISA kits are used to quantitate the viral proteins HBsAg (Alpco) or HbeAg (US Biological) by following the manufacturer's recommended protocol after diluting samples to match the linear range of their respective assays. Irrespective of readout, compound concentrations that reduce viral product accumulation in the cell lysates or supernatants by 50% relative to no drug controls (EC50) are reported; EC50 ranges are as follows: A<0.1 μM; B 0.1-1 μM; C>1 μM.

HepG2 = assay: Compound toxicity, ATPLite total ATP levels; type: cell-based; conditions: human, 3 days
Experimental: (§1) Compound toxicity is evaluated by seeding cells at 15,000 cells/well and treating with compound as described above.

[1] = Compound toxicity, ATPLite total ATP levels; type: cell-based; conditions: human
Experimental: as §1

[2] = Hepatitis B virus, class symbols
[3] = Hepatitis B virus, numeric bound
[4] = HepG2 cells, HepG2, three days after compound addition, 50% reduction of total ATP levels (ATPLite), read-out: HepG2 CC50

Row | Structure (SMILES) | EC50 (HBV; Hepatitis B virus) [µM] | pEC50 (HBV; [2]) | also measured
1 | O=S(=O)(N[C@H]1CC2=C(c3ccn(C(F)F)n3)[C@H](c3ccc(F)cc3Cl)N=C(c3nccs3)N2C1)N1C2CCC1CC(O)(c1nccs1)C2 (stereo partly shown) [Example 20] | < 0.1 | – | –
2 | O=C(N[C@H]1CC2=C(c3ccn(C(F)F)n3)[C@H](c3ccc(F)cc3Cl)N=C(c3nccs3)N2C1)N1C[C@H]2CC[C@@H](C1)[C@H]2O [Example 7] | – | 6.00 to 7.00 | –
3 | C#C[C@]1(O)C2CCC1C[C@@H](S(=O)(=O)N[C@H]1CC3=C(c4ccn(C(F)F)n4)[C@H](c4ccc(F)cc4Cl)N=C(c4nccs4)N3C1)C2 [Example 26] | – | > 7.00 | –
4 | O=S(=O)(N[C@H]1CC2=C(c3ccn(C(F)F)n3)[C@H](c3ccc(F)cc3Cl)N=C(c3nccs3)N2C1)N1CC2CCC(C1)C2O (stereo partly shown) [Example 15] | – | > 7.00 | –
5 | O=S(=O)(N[C@H]1CC2=C(c3ccn(C(F)F)n3)[C@H](c3ccc(F)cc3Cl)N=C(c3nccs3)N2C1)N1C2CCC1CC(O)C2 (single isomer, unassigned) [Example 3] | – | – | pEC50 (HBV; class symbols): > 7.00; CC50 (HepG2): > 25000 nM
6 | O=C(N[C@H]1CC2=C(c3ccn(C(F)F)n3)[C@H](c3ccc(F)cc3Cl)N=C(c3nccs3)N2C1)N1[C@@H]2CC[C@H]1C[C@@H](O)C2 [Example 5] | – | – | pEC50 (HBV; [3]): < 6.40
7 | O=C1NCC2(CC3CCC(C2)N3S(=O)(=O)N[C@H]2CC3=C(c4ccn(C(F)F)n4)[C@H](c4ccc(F)cc4Cl)N=C(c4nccs4)N3C2)O1 (stereo partly shown) [Example 21] | < 0.1 | – | CC50 at 3 days ([1]; HepG2 CC50 (μM)): > 25 µM
8 | O=S(=O)(N[C@H]1CC2=C(c3ccn(C(F)F)n3)[C@H](c3ccc(F)cc3Cl)N=C(c3nccs3)N2C1)[C@H]1CC2CCC(C1)[C@]2(O)CO [Example 27] | – | > 7.00 | CC50 at 3 days [1, 4]: > 25 µM
9 | O=S(=O)(N[C@H]1CC2=C(c3ccn(C(F)F)n3)[C@H](c3ccc(F)cc3Cl)N=C(c3nccs3)N2C1)N1C2CC[C@H]1C[C@](O)(c1cn(-c3ccccn3)nn1)C2 [Example 31] | < 0.1 | – | –
10 | O=C1C2CCC1CC(S(=O)(=O)N[C@H]1CC3=C(c4ccn(C(F)F)n4)[C@H](c4ccc(F)cc4Cl)N=C(c4nccs4)N3C1)C2 (stereo partly shown) [Example 16] | – | 6.00 to 7.00 | –
11 | O=S(=O)(N[C@H]1CC2=C(c3ccn(C(F)F)n3)[C@H](c3ccc(F)cc3Cl)N=C(c3nccs3)N2C1)N1C2CCC1CC(F)(F)C2 [Example 10] | < 0.1 | – | –
12 | CC(C)(C)OC(=O)N1C2CCC1CC(NS(=O)(=O)N[C@H]1CC3=C(c4ccn(C(F)F)n4)[C@H](c4ccc(F)cc4Cl)N=C(c4nccs4)N3C1)C2 (stereo partly shown) [Example 11] | 0.1 to 1 | – | –
13 | O=S(=O)(N[C@H]1CC2=C(c3ccn(C(F)F)n3)[C@H](c3ccc(F)cc3Cl)N=C(c3nccs3)N2C1)[C@@H]1CC2CC[C@@H](C1)[C@@]2(O)c1cn(-c2ccccn2)nn1 [Example 28] | – | > 7.00 | –
14 | O=S(=O)(N[C@H]1CC2=C(c3ccn(C(F)F)n3)[C@H](c3ccc(F)cc3Cl)N=C(c3nccs3)N2C1)N1C2CCC1CC(O)(c1cn(-c3ccccn3)nn1)C2 (stereo partly shown) [Example 24] | < 0.1 | – | CC50 at 3 days ([1]; HepG2 CC50 (μM)): > 25 µM
15 | O=S(=O)(N[C@H]1CC2=C(c3ccn(C(F)F)n3)[C@H](c3ccc(F)cc3Cl)N=C(c3nccs3)N2C1)N1C2CCC1CC(O)C2 (single isomer, unassigned) [Example 1] | < 0.1 | – | CC50 (HepG2): 10000 to 25000 nM
16 | O=C(N[C@H]1CC2=C(c3ccn(C(F)F)n3)[C@H](c3ccc(F)cc3Cl)N=C(c3nccs3)N2C1)N1C[C@H]2CC[C@@H](C1)[C@@H]2O [Example 6] | – | 6.00 to 7.00 | –
17 | O=S(=O)(N[C@H]1CC2=C(c3ccn(C(F)F)n3)[C@H](c3ccc(F)cc3Cl)N=C(c3nccs3)N2C1)[C@H]1CC2CCC(C1)[C@]2(O)c1ccccn1 [Example 18] | – | > 7.00 | CC50 at 3 days [1, 4]: 10 to 25 µM
18 | O=S(=O)(N[C@H]1CC2=C(c3ccn(C(F)F)n3)[C@H](c3ccc(F)cc3Cl)N=C(c3nccs3)N2C1)N1C2CCC1CC(O)(Cn1ccnc1)C2 (stereo partly shown) [Example 30] | < 0.1 | – | –

Row | Structure (SMILES) | EC50 (HBV; Hepatitis B virus) [µM] | pEC50 (HBV; [2]) | also measured
19 | O=C(N[C@H]1CC2=C(c3ccn(C(F)F)n3)[C@H](c3ccc(F)cc3Cl)N=C(c3nccs3)N2C1)N1[C@@H]2CC[C@H]1C[C@H](O)C2 [Example 8] | 0.1 to 1 | – | –
20 | O=S(=O)(N[C@H]1CC2=C(c3ccn(C(F)F)n3)[C@H](c3ccc(F)cc3Cl)N=C(c3nccs3)N2C1)N1CC2CCC(C1)O2 [Example 2] | – | > 7.00 | –
21 | O=C1CC2CC[C@@H](C1)[C@H]2S(=O)(=O)N[C@H]1CC2=C(c3ccn(C(F)F)n3)[C@H](c3ccc(F)cc3Cl)N=C(c3nccs3)N2C1 [Example 33] | – | > 7.00 | CC50 at 3 days [1, 4]: > 25 µM
22 | O=C(N[C@H]1CC2=C(c3ccn(C(F)F)n3)[C@H](c3ccc(F)cc3Cl)N=C(c3nccs3)N2C1)N1CC2CCC(C1)O2 [Example 4] | – | – | pEC50 (HBV; [3]): < 6.40
23 | CN([C@H]1CC2=C(c3ccn(C(F)F)n3)[C@H](c3ccc(F)cc3Cl)N=C(c3nccs3)N2C1)S(=O)(=O)N1C2CC[C@H]1C[C@@](O)(c1nccs1)C2 [Example 36] | < 0.1 | – | CC50 at 3 days ([1]; HepG2 CC50 (μM)): > 25 µM
24 | O=S(=O)(N[C@H]1CC2=C(c3ccn(C(F)F)n3)[C@H](c3ccc(F)cc3Cl)N=C(c3nccs3)N2C1)N1C2CC[C@H]1C=C(c1cn(-c3ccccn3)nn1)C2 [Example 32] | < 0.1 | – | CC50 at 3 days ([1]; HepG2 CC50 (μM)): > 25 µM
25 | O=S(=O)(N[C@H]1CC2=C(c3ccn(C(F)F)n3)[C@H](c3ccc(F)cc3Cl)N=C(c3nccs3)N2C1)N1C2CCC1CC(O)(c1nccs1)C2 (stereo partly shown) [Example 23] | – | – | pEC50 (HBV; class symbols): > 7.00; CC50 at 3 days ([1]; HepG2 CC50 (μM)): > 25 µM
26 | O=C1CC2CCC(C1)N2S(=O)(=O)N[C@H]1CC2=C(c3ccn(C(F)F)n3)[C@H](c3ccc(F)cc3Cl)N=C(c3nccs3)N2C1 [Example 9] | < 0.1 | – | CC50 at 3 days ([1]; HepG2 CC50 (μM)): > 25 µM
27 | C[C@]1(O)C2CCC1C[C@@H](S(=O)(=O)N[C@H]1CC3=C(c4ccn(C(F)F)n4)[C@H](c4ccc(F)cc4Cl)N=C(c4nccs4)N3C1)C2 [Example 25] | – | > 7.00 | –
28 | O=S(=O)(NC1CC2CCC(C1)C2O)N[C@H]1CC2=C(c3ccn(C(F)F)n3)[C@H](c3ccc(F)cc3Cl)N=C(c3nccs3)N2C1 (stereo partly shown) [Example 12] | – | 6.00 to 7.00 | –
29 | O=S(=O)(N[C@H]1CC2=C(c3ccn(C(F)F)n3)[C@H](c3ccc(F)cc3Cl)N=C(c3nccs3)N2C1)[C@H]1C2CC[C@H]1C[C@@](O)(c1ccccn1)C2 [Example 34] | – | > 7.00 | –
30 | O=S(=O)(N[C@H]1CC2=C(c3ccn(C(F)F)n3)[C@H](c3ccc(F)cc3Cl)N=C(c3nccs3)N2C1)[C@H]1C2CC[C@H]1C[C@@](O)(CO)C2 [Example 35] | – | > 7.00 | CC50 at 3 days [1, 4]: > 25 µM
31 | O=S(=O)(N[C@H]1CC2=C(c3ccn(C(F)F)n3)[C@H](c3ccc(F)cc3Cl)N=C(c3nccs3)N2C1)N1CC2CCC(C1)C2(O)c1ccccn1 (stereo partly shown) [Example 14] | – | > 7.00 | –
32 | O=S(=O)(C[C@H]1CC2=C(c3ccn(C(F)F)n3)[C@H](c3ccc(F)cc3Cl)N=C(c3nccs3)N2C1)N1CC2CC[C@@H](C1)[C@]2(O)c1ccccn1 [Example 37] | – | > 7.00 | –
33 | C#CC1(O)CC2CCC(C1)N2S(=O)(=O)N[C@H]1CC2=C(c3ccn(C(F)F)n3)[C@H](c3ccc(F)cc3Cl)N=C(c3nccs3)N2C1 (stereo partly shown) [Example 22] | < 0.1 | – | –
34 | O=S(=O)(N[C@H]1CC2=C(c3ccn(C(F)F)n3)[C@H](c3ccc(F)cc3Cl)N=C(c3nccs3)N2C1)[C@H]1CC2CCC(C1)[C@H]2O [Example 17] | – | > 7.00 | CC50 at 3 days [1, 4]: 10 to 25 µM
35 | O=S(=O)(N[C@H]1CC2=C(c3ccn(C(F)F)n3)[C@H](c3ccc(F)cc3Cl)N=C(c3nccs3)N2C1)N1C2CCC1CC(O)(c1ccccn1)C2 (stereo partly shown) [Example 19] | < 0.1 | – | –
36 | O=S(=O)(C[C@H]1CC2=C(c3ccn(C(F)F)n3)[C@H](c3ccc(F)cc3Cl)N=C(c3nccs3)N2C1)N1C2CC[C@H]1C[C@@](O)(c1ccccn1)C2 [Example 38] | 0.1 to 1 | – | –
